Data published in article PMC8286840, “Identifying SARS-CoV-2 antiviral compounds by screening for small molecule inhibitors of Nsp3 papain-like protease” (Biochemical Journal, 2021).
Counter-ions that a name gives are not always drawn. Like-named read-outs stand apart in the source and are kept apart here.

Tests used:
[1] = target: T1, SARS-CoV-2 PLpro (nsp3 1564–1878) (Severe acute respiratory syndrome coronavirus 2, UniProt P0DTD1); assay: biochemical; set-up: FRET-quenched peptide (Pro3) cleavage by PLpro, 10 min pre-incubation, slope over 20 min, normalised to no-compound control; conditions: read-out: % of control remaining
[2] = target: T1, SARS-CoV-2 PLpro (nsp3 1564–1878); assay: biochemical; set-up: FRET-quenched peptide (Pro3) cleavage by PLpro, 10 min pre-incubation, slope over 20 min, normalised to no-compound control; conditions: read-out: % of control remaining; remark: listed apart in the source

`CSCCNc1nonc1-c1noc(=O)n1-c1ccc(F)c(Br)c1` [IDO-IN-12] showed a remaining activity at 3.75 µM ([1]; Well no.=8177, high concentration screen) of 99.7% and a remaining activity at 1.25 µM ([2]; Well no.=8177, low concentration screen) of 105%.
Compound `O=C(O)CC/C=C\C[C@H]1CO[C@@H](c2ccccc2Cl)O[C@H]1c1ccccc1O` [ICI 192605] has a remaining activity at 3.75 µM ([1]; Well no.=5873, high concentration screen) of 100% and a remaining activity at 1.25 µM ([2]; Well no.=5873, low concentration screen) of 98.7%.
`N[C@@H](COP(=O)(O)O)C(=O)O` [O-Phospho-L-serine] was tested, and the remaining activity at 3.75 µM ([1]; Well no.=806, high concentration screen) was 95.7%, the remaining activity at 3.75 µM ([1]; Well no.=6867, high concentration screen) was 99.4% and the remaining activity at 3.75 µM ([1]; Well no.=6956, high concentration screen) was 101%. It also gave a remaining activity at 1.25 µM ([2]; Well no.=806, low concentration screen) of 98%, a remaining activity at 1.25 µM ([2]; Well no.=6867, low concentration screen) of 99.1% and a remaining activity at 1.25 µM ([2]; Well no.=6956, low concentration screen) of 101%.
For `COc1ccc(C2=N[C@@H](c3ccc(Cl)cc3)[C@@H](c3ccc(Cl)cc3)N2C(=O)N2CCNC(=O)C2)c(OC(C)C)c1` [Nutlin-3], the remaining activity at 3.75 µM ([1]; Well no.=4621, high concentration screen) was 108% and the remaining activity at 1.25 µM ([2]; Well no.=4621, low concentration screen) was 104%.
In the case of `CCn1cc(C(=O)O)c(=O)c2cc(F)c(N3CCNC(C)C3)c(F)c21` (stereo not drawn) [Lomefloxacin hydrochloride], the remaining activity at 3.75 µM ([1]; Well no.=929, high concentration screen) is reported as 94.8% and the remaining activity at 1.25 µM ([2]; Well no.=929, low concentration screen) is reported as 98.7%.
With `O=C(Nc1ccc(S(=O)(=O)Nc2ccccc2Cl)c(Cl)c1)c1ccccn1` [VU 0364439] the remaining activity at 3.75 µM ([1]; Well no.=4978, high concentration screen) was 96.2% and the remaining activity at 1.25 µM ([2]; Well no.=4978, low concentration screen) was 96.2%.
For `COc1cccc(OC)c1OCCNCC1COc2ccccc2O1` (stereo not drawn) [WB-4101 hydrochloride], the remaining activity at 3.75 µM ([1]; Well no.=443, high concentration screen) was 99.1% and the remaining activity at 1.25 µM ([2]; Well no.=443, low concentration screen) was 96%.
`CCOC(=O)C1=C(COCCN)NC(C)=C(C(=O)OC)C1c1ccccc1Cl` (stereo not drawn) [Amlodipine] was tested, and the remaining activity at 3.75 µM ([1]; Well no.=1711, high concentration screen) was 99% and the remaining activity at 1.25 µM ([2]; Well no.=1711, low concentration screen) was 99.1%.
Compound `CC(C)[C@@H](CN1CC[C@@](C)(c2cccc(O)c2)[C@@H](C)C1)NC(=O)[C@H]1Cc2ccc(O)cc2CN1` [JDTic (dihydrochloride)] has a remaining activity at 3.75 µM ([1]; Well no.=7139, high concentration screen) of 97% and a remaining activity at 1.25 µM ([2]; Well no.=7139, low concentration screen) of 99.3%.
`O=C(Nc1ncc(SCCN2CCCC2)s1)[C@]1(c2ccc(S(=O)(=O)C3CC3)cc2)C[C@H]1C1CCCCC1` [LY2608204] was tested, and the remaining activity at 3.75 µM ([1]; Well no.=4772, high concentration screen) was 99.2% and the remaining activity at 1.25 µM ([2]; Well no.=4772, low concentration screen) was 100%.
`C=CCc1ccccc1OCC(O)CNC(C)C` (stereo not drawn) [Alprenolol hydrochloride] was tested, and the remaining activity at 3.75 µM ([1]; Well no.=342, high concentration screen) was 97.7% and the remaining activity at 1.25 µM ([2]; Well no.=342, low concentration screen) was 95.5%.
For `CC(C)Oc1ccc(C(=O)Cn2ccnc2)cc1-n1c(CN2CCN(C(=O)COc3ccc(Cl)cc3)CC2)nc2ccccc2c1=O` [Imidazole ketone erastin], the remaining activity at 3.75 µM ([1]; Well no.=6884, high concentration screen) was 97% and the remaining activity at 1.25 µM ([2]; Well no.=6884, low concentration screen) was 95.5%.
`O=C(NCc1ccccc1)c1csc(Nc2ccncn2)n1` [Thiazovivin] showed a remaining activity at 3.75 µM ([1]; Well no.=4867, high concentration screen) of 102% and a remaining activity at 1.25 µM ([2]; Well no.=4867, low concentration screen) of 100%.
`C=CC[C@H](N)C(=O)O` [L-allylglycine] was tested, and the remaining activity at 3.75 µM ([1]; Well no.=292, high concentration screen) was 91.8% and the remaining activity at 1.25 µM ([2]; Well no.=292, low concentration screen) was 91.4%.
With `O=c1ccc2cc(O)c(O)cc2o1` [Esculetin] the remaining activity at 3.75 µM ([1]; Well no.=3988, high concentration screen) was 98.6% and the remaining activity at 1.25 µM ([2]; Well no.=3988, low concentration screen) was 101%.
Work on `CN(CCOc1ccc(C[C@H](Nc2ccccc2C(=O)c2ccccc2)C(=O)O)cc1)c1ccccn1` [GW1929] yielded a remaining activity at 3.75 µM ([1]; Well no.=477, high concentration screen) of 96.6%, a remaining activity at 3.75 µM ([1]; Well no.=8120, high concentration screen) of 94.2% and a remaining activity at 1.25 µM ([2]; Well no.=8120, low concentration screen) of 97.1%.
Compound `Cc1ccccc1CNc1ncnc2c1ncn2[C@@H]1O[C@H](CO)[C@@H](O)[C@H]1O` [Metrifudil] has a remaining activity at 3.75 µM ([1]; Well no.=851, high concentration screen) of 96.8% and a remaining activity at 1.25 µM ([2]; Well no.=851, low concentration screen) of 95.7%.
In the case of `C[N+](C)(C)CCOP(=O)(O)OP(=O)([O-])OC[C@H]1O[C@@H](n2ccc(N)nc2=O)[C@H](O)[C@@H]1O` [Citicoline sodium], the remaining activity at 3.75 µM ([1]; Well no.=375, high concentration screen) is reported as 101% and the remaining activity at 1.25 µM ([2]; Well no.=375, low concentration screen) is reported as 91.9%.
In the case of `CC(=O)OCC1=C(C(=O)O)N2C(=O)[C@@H](N)[C@H]2SC1` [7-Aminocephalosporanic acid], the remaining activity at 3.75 µM ([1]; Well no.=5286, high concentration screen) is reported as 96% and the remaining activity at 1.25 µM ([2]; Well no.=5286, low concentration screen) is reported as 98.5%.
`CCN(CC)C(=O)[C@]1(c2ccccc2)C[C@@H]1CN` (racemic) [Milnacipran HCl] showed a remaining activity at 3.75 µM ([1]; Well no.=4977, high concentration screen) of 101% and a remaining activity at 1.25 µM ([2]; Well no.=4977, low concentration screen) of 102%.
Compound `Nc1ncnc2nc(-c3ccc(N4CCOCC4)nc3)cc(-c3cccc(Br)c3)c12` [Adenosine Kinase Inhibitor] has a remaining activity at 3.75 µM ([1]; Well no.=2694, high concentration screen) of 103% and a remaining activity at 1.25 µM ([2]; Well no.=2694, low concentration screen) of 102%.
In the case of `COc1cccc(N(C)C(=S)Oc2ccc3c(c2)CCCC3)n1` [Liranaftate], the remaining activity at 3.75 µM ([1]; Well no.=4672, high concentration screen) is reported as 101% and the remaining activity at 1.25 µM ([2]; Well no.=4672, low concentration screen) is reported as 101%.
`CC(=O)O[C@]1(C(C)=O)CC[C@H]2[C@@H]3C=C(C)C4=CC(=O)CC[C@]4(C)[C@H]3CC[C@@]21C` [Megestrol Acetate] gave a remaining activity at 3.75 µM ([1]; Well no.=2236, high concentration screen) of 93.2% and a remaining activity at 1.25 µM ([2]; Well no.=2236, low concentration screen) of 95%.
For `CC1(C)CCCC(C)(C)N1[O]` [TEMPO], the remaining activity at 3.75 µM [1] was 99.1% and the remaining activity at 1.25 µM [2] was 95.5%.
`C[C@@H](O)CC(=O)O` [(R)-3-Hydroxybutanoic acid] showed a remaining activity at 3.75 µM ([1]; Well no.=7123, high concentration screen) of 105% and a remaining activity at 1.25 µM ([2]; Well no.=7123, low concentration screen) of 106%.
Work on `CCCCCCCCC#CCC#CCC#CCCCC(=O)O` [5,8,11-Eicosatriynoic acid] yielded a remaining activity at 3.75 µM ([1]; Well no.=411, high concentration screen) of 97.5%, a remaining activity at 3.75 µM ([1]; Well no.=4470, high concentration screen) of 92.3% and a remaining activity at 1.25 µM ([2]; Well no.=411, low concentration screen) of 101%. It also gave a remaining activity at 1.25 µM ([2]; Well no.=4470, low concentration screen) of 96.8%.
`O=C1CCc2c(ccc3ccccc23)O1` [Splitomicin] was tested, and the remaining activity at 3.75 µM ([1]; Well no.=5525, high concentration screen) was 120% and the remaining activity at 1.25 µM ([2]; Well no.=5525, low concentration screen) was 105%.
In the case of `CC[C@@H](CO)NC(=O)[C@@H]1C=C2c3cccc4[nH]cc(c34)C[C@H]2N(C)C1` [Methylergonovine maleate], the remaining activity at 3.75 µM ([1]; Well no.=1114, high concentration screen) is reported as 90.6%, the remaining activity at 3.75 µM ([1]; Well no.=3250, high concentration screen) is reported as 98% and the remaining activity at 1.25 µM ([2]; Well no.=1114, low concentration screen) is reported as 94.9%. For the same compound, the remaining activity at 1.25 µM ([2]; Well no.=3250, low concentration screen) was 98.4%.
`O=P(O)(O)CP(=O)(O)OC[C@H]1O[C@@H](n2cnc3c(NCc4ccccc4)ncnc32)[C@H](O)[C@@H]1O` [PSB-12379] showed a remaining activity at 3.75 µM ([1]; Well no.=8745, high concentration screen) of 105% and a remaining activity at 1.25 µM ([2]; Well no.=8745, low concentration screen) of 105%.
With `Nc1nc2[nH]cc(CCc3ccc(C(=O)N[C@@H](CCC(=O)O)C(=O)O)cc3)c2c(=O)[nH]1` [Pemetrexed (disodium)] the remaining activity at 3.75 µM ([1]; Well no.=7500, high concentration screen) was 93.5% and the remaining activity at 1.25 µM ([2]; Well no.=7500, low concentration screen) was 102%.
Work on `C=C1C[C@@]23CC[C@H]4[C@@](C)(CCC[C@@]4(C)C(=O)O[C@@H]4O[C@H](CO)[C@@H](O)[C@H](O)[C@H]4O)[C@@H]2CC[C@]1(O[C@@H]1O[C@H](C)[C@@H](O)[C@H](O)[C@@H]1O[C@@H]1O[C@H](CO)[C@@H](O)[C@H](O[C@@H]2O[C@H](CO)[C@@H](O)[C@H](O)[C@H]2O)[C@H]1O)C3` [Rebaudioside C] yielded a remaining activity at 3.75 µM ([1]; Well no.=8446, high concentration screen) of 95.9% and a remaining activity at 1.25 µM ([2]; Well no.=8446, low concentration screen) of 96%.
`CN(C)c1cc2c(Nc3ccc4c(cnn4Cc4ccccc4)c3)ncnc2cn1` [GW2974] gave a remaining activity at 3.75 µM ([1]; Well no.=523, high concentration screen) of 100% and a remaining activity at 1.25 µM ([2]; Well no.=523, low concentration screen) of 103%.
In the case of `CN(C)CCN1C(=O)c2ccccc2N(C)c2ccccc21` [Dibenzepine], the remaining activity at 3.75 µM ([1]; Well no.=2096, high concentration screen) is reported as 99.6% and the remaining activity at 1.25 µM ([2]; Well no.=2096, low concentration screen) is reported as 97%.
